ChEMBL document CHEMBL4354874, “Insights into PPARγ Phosphorylation and Its Inhibition Mechanism” (J Med Chem, 2020)
The source made the active and inactive calls. No cut-off for these calls is given here.

Target: Cyclin-dependent kinase 5 (Homo sapiens) (UniProt Q00535)
Experiment: Inhibition of CDK5 (unknown origin) assessed as reduction in histone H1 phosphorylation

Sequence of Cyclin-dependent kinase 5 (Homo sapiens) (Q00535 whole entry, looked up): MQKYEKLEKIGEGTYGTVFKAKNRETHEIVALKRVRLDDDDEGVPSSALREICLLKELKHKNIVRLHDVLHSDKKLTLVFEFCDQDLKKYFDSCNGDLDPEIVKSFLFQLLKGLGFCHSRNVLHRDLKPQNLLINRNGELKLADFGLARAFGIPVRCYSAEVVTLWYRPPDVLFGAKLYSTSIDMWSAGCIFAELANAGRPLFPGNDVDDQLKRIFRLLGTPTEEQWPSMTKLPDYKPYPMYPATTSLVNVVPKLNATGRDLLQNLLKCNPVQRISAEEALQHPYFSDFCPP

## O=C(O)[C@H](Cc1ccccc1)Oc1ccc(-c2ccccc2)cc1
  inhibition: inactive
